Test results as given in EP0351597A2, “"N15-alkyl and N15,N15-di-alkyl derivatives of teicoplanin antibiotics carrying functional groups on the alkyl side chain” (GRUPPO LEPETIT S.p.A., priority 1988, dated 1990).
In brackets after ≈: the same amount, converted by molar mass. Where two headings read alike, the source gives them in different places.

What was measured:
S. aureus Tour = assay: In vitro antibacterial activity (MIC), standard dilution test; format: cell-based
Source text: Isosensitest broth (Oxoid) and Todd-Hewitt broth (Difco) are used for growing staphylococci and streptococci, respectively. […]

[1] = test system: S. epidermidis ATCC 12228; assay: as above; format: cell-based
Method: (§1) Isosensitest broth (Oxoid) and Todd-Hewitt broth (Difco) are used for growing staphylococci and streptococci, respectively. Broth cultures are diluted so that the final inoculum is about 10⁴ colony forming units/ml (CFU/ml).

S. faecalis ATCC 7080 = assay: as above; format: cell-based
Method: as §1

S. haemolyticus L 602 = assay: as above; format: cell-based
Method: as §1

S. pneumoniae UC41 = assay: as above; format: cell-based
Method: as §1

S. pyogenes C203 = assay: as above; format: cell-based
Method: as §1

E. coli SKF 12140 = assay: as above; format: cell-based
[2] = test system: P. vulgaris X19H ATCC 881; assay: as above; format: cell-based
P. aeruginosa ISM = assay: as above; format: cell-based
S. pyogenes L 49 = assay: In vivo test in mice experimentally infected with S. pyogenes L 49 (ED50)
Method: The ED₅₀ values (mg/Kg) of representative compounds of the invention in vivo tests in mice experimentally infected with S. pyogenes L 49 and reported in Table V were carried out according to the procedure described by V. Arioli et al., Journal of Antibiotics 29, 511 (1976).

Acid-base titration = format: physicochemical; conditions: Methylcellosolve/H₂O, 4/1 (v/v); titrated with 0.01 N NaOH after adding 0.01 N HCl
[3] = S. aureus Tour + 30% bovine serum
[4] = S. haemolyticus L 602, no visible growth after 18-24 h at 37°C, inoculum about 10⁴ CFU/ml
[5] = Staphylococcus aureus, S. aureus Tour 10^4, read-out: MIC
[6] = Staphylococcus aureus, S. aureus Tour 10^6, read-out: MIC
[7] = Staphylococcus aureus, S. aureus Tour + 30% bovine serum, read-out: MIC
[8] = Staphylococcus epidermidis, ATCC12228, read-out: MIC
[9] = Enterococcus faecalis, ATCC7080, read-out: MIC
[10] = Staphylococcus haemolyticus, L602, S. haemolyticus L 602, no visible growth after 18-24 h at 37°C, inoculum about 10⁴ CFU/ml, read-out: MIC
[11] = Streptococcus pneumoniae, read-out: MIC
[12] = Streptococcus pyogenes, read-out: MIC
[13] = Escherichia coli, SKF12140, read-out: MIC
[14] = Proteus vulgaris, ATCC881, read-out: MIC
[15] = Pseudomonas aeruginosa, read-out: MIC
[16] = Streptococcus pyogenes, L49, sc, S. pyogenes L 49, s.c., read-out: ED50

Work on “N¹⁵-(2-dimethylamino)ethyl teicoplanin [Compound 3]” yielded an MIC (S. aureus Tour; S. aureus Tour 10^4) of 0.125 microgram/ml, an MIC (S. aureus Tour; S. aureus Tour 10^6) of 0.5 microgram/ml and an MIC (S. aureus Tour; [3]) of 0.5 microgram/ml. The MIC [1] was 0.125 microgram/ml, the MIC (S. faecalis ATCC 7080) was 0.125 microgram/ml and the MIC (S. haemolyticus L 602; [4]) was 2 microgram/ml. The MIC (S. pneumoniae UC41) was 0.125 microgram/ml, the MIC (S. pyogenes C203) was 0.125 microgram/ml and the MIC (E. coli SKF 12140) was over 128 microgram/ml. For the same compound, the MIC [2] was over 128 microgram/ml, the MIC (P. aeruginosa ISM) was over 128 microgram/ml and the ED50 (S. pyogenes L 49; S. pyogenes L 49, o.s.) was over 300 mg/kg. The ED50 (S. pyogenes L 49; S. pyogenes L 49, s.c.) was 0.41 mg/kg, the pK₁ (Acid-base titration) was 4.85 and the pK₂ (Acid-base titration) was 6.2. It also gave a pK₃ (Acid-base titration) of 8.45.

`CC(O)C(C)NC1C(=O)NC2Cc3ccc(c(Cl)c3)Oc3cc4cc(c3O)Oc3ccc(cc3Cl)C(O)C3NC(=O)C(NC(=O)C4NC(=O)C(NC2=O)c2cc(O)cc(c2)Oc2cc1ccc2O)c1ccc(O)c(c1)-c1c(O)cc(O)cc1C(C(=O)O)NC3=O` (stereo not drawn) [Compound 8, N¹⁵-(1-methyl-2-hydroxy)propyl teicoplanin aglycon] showed an MIC (S. aureus Tour; [5]) of 0.12 µg/mL (≈ 0.0944 µM), an MIC (S. aureus Tour; [6]) of 0.12 µg/mL (≈ 0.0944 µM) and an MIC (S. aureus Tour; [7]) of 2 µg/mL. For the same compound, the MIC [1, 8] was 0.06 µg/mL (≈ 0.0472 µM), the MIC (S. faecalis ATCC 7080; [9]) was 0.12 µg/mL (≈ 0.0944 µM) and the MIC (S. haemolyticus L 602; [10]) was 0.5 µg/mL (≈ 0.393 µM). It also gave an MIC (S. pneumoniae UC41; [11]) of 0.25 µg/mL (≈ 0.197 µM), an MIC (S. pyogenes C203; [12]) of 0.12 µg/mL (≈ 0.0944 µM) and an MIC (E. coli SKF 12140; [13]) of over 128 µg/mL. The MIC [2, 14] was over 128 µg/mL, the MIC (P. aeruginosa ISM; [15]) was over 128 µg/mL and the ED50 (S. pyogenes L 49; [16]) was 0.86 mg/kg.

Compound “N¹⁵-(1-methyl-2-hydroxy)propyl) teicoplanin [Compound 2]” has an MIC (S. aureus Tour; S. aureus Tour 10^4) of 0.5 microgram/ml, an MIC (S. aureus Tour; S. aureus Tour 10^6) of 1 microgram/ml and an MIC (S. aureus Tour; [3]) of 2 microgram/ml. The MIC [1] was 0.25 microgram/ml, the MIC (S. faecalis ATCC 7080) was 0.12 microgram/ml and the MIC (S. haemolyticus L 602; [4]) was 16 microgram/ml. For the same compound, the MIC (S. pneumoniae UC41) was 0.25 microgram/ml, the MIC (S. pyogenes C203) was 0.06 microgram/ml and the MIC (E. coli SKF 12140) was over 128 microgram/ml. It also gave an MIC [2] of over 128 microgram/ml, an MIC (P. aeruginosa ISM) of over 128 microgram/ml and a pK₁ (Acid-base titration) of 5.05. The pK₂ (Acid-base titration) was 6.35.

“N¹⁵-(1-methyl-2-hydroxy)ethyl teicoplanin [Compound 6]” gave an MIC (S. aureus Tour; S. aureus Tour 10^4) of 0.25 microgram/ml, an MIC (S. aureus Tour; S. aureus Tour 10^6) of 1 microgram/ml and an MIC (S. aureus Tour; [3]) of 2 microgram/ml. For the same compound, the MIC [1] was 0.5 microgram/ml, the MIC (S. faecalis ATCC 7080) was 0.12 microgram/ml and the MIC (S. haemolyticus L 602; [4]) was 1.6 microgram/ml. It also gave an MIC (S. pneumoniae UC41) of 0.25 microgram/ml, an MIC (S. pyogenes C203) of 0.12 microgram/ml and an MIC (E. coli SKF 12140) of over 128 microgram/ml. The MIC [2] was over 128 microgram/ml and the MIC (P. aeruginosa ISM) was over 128 microgram/ml.

Compound “N¹⁵-(2-methoxyethoxy)methyl teicoplanin [Compound 4]” has an MIC (S. aureus Tour; S. aureus Tour 10^4) of 0.12 microgram/ml, an MIC (S. aureus Tour; S. aureus Tour 10^6) of 0.5 microgram/ml and an MIC (S. aureus Tour; [3]) of 1 microgram/ml. For the same compound, the MIC [1] was 0.125 microgram/ml, the MIC (S. faecalis ATCC 7080) was 0.125 microgram/ml and the MIC (S. haemolyticus L 602; [4]) was 8 microgram/ml. For the same compound, the MIC (S. pneumoniae UC41) was 0.125 microgram/ml, the MIC (S. pyogenes C203) was 0.06 microgram/ml and the MIC (E. coli SKF 12140) was over 128 microgram/ml. It also gave an MIC [2] of over 128 microgram/ml and an MIC (P. aeruginosa ISM) of over 128 microgram/ml.

`CC(CO)NC1C(=O)NC2Cc3ccc(c(Cl)c3)Oc3cc4cc(c3O)Oc3ccc(cc3Cl)C(O)C3NC(=O)C(NC(=O)C4NC(=O)C(NC2=O)c2cc(O)cc(c2)Oc2cc1ccc2O)c1ccc(O)c(c1)-c1c(O)cc(O)cc1C(C(=O)O)NC3=O` (stereo not drawn) [Compound 7, N¹⁵-(1-methyl-2-hydroxy)ethyl teicoplanin aglycon] gave an MIC (S. aureus Tour; [5]) of 0.06 µg/mL (≈ 0.0477 µM), an MIC (S. aureus Tour; [6]) of 0.12 µg/mL (≈ 0.0955 µM) and an MIC (S. aureus Tour; [7]) of 1 µg/mL. For the same compound, the MIC [1, 8] was 0.06 µg/mL (≈ 0.0477 µM), the MIC (S. faecalis ATCC 7080; [9]) was 0.25 µg/mL (≈ 0.199 µM) and the MIC (S. haemolyticus L 602; [10]) was 0.5 µg/mL (≈ 0.398 µM). It also gave an MIC (S. pneumoniae UC41; [11]) of 0.12 µg/mL (≈ 0.0955 µM), an MIC (S. pyogenes C203; [12]) of 0.12 µg/mL (≈ 0.0955 µM) and an MIC (E. coli SKF 12140; [13]) of over 128 µg/mL. For the same compound, the MIC [2, 14] was over 128 µg/mL, the MIC (P. aeruginosa ISM; [15]) was over 128 µg/mL and the ED50 (S. pyogenes L 49; [16]) was 0.84 mg/kg.

With `CN(C)CCNC1C(=O)NC2Cc3ccc(c(Cl)c3)Oc3cc4cc(c3O)Oc3ccc(cc3Cl)C(O)C3NC(=O)C(NC(=O)C4NC(=O)C(NC2=O)c2cc(O)cc(c2)Oc2cc1ccc2O)c1ccc(O)c(c1)-c1c(O)cc(O)cc1C(C(=O)O)NC3=O` (stereo not drawn) [Compound 5, N¹⁵-(2-dimethylamino)ethyl teicoplanin aglycon] the MIC (S. aureus Tour; [5]) was 0.125 µg/mL (≈ 0.0984 µM), the MIC (S. aureus Tour; [6]) was 0.125 µg/mL (≈ 0.0984 µM) and the MIC (S. aureus Tour; [7]) was 1 µg/mL. It also gave an MIC [1, 8] of 0.06 µg/mL (≈ 0.0472 µM), an MIC (S. faecalis ATCC 7080; [9]) of 0.25 µg/mL (≈ 0.197 µM) and an MIC (S. haemolyticus L 602; Staphylococcus haemolyticus, L602) of 0.5 µg/mL (≈ 0.394 µM). It also gave an MIC (S. pneumoniae UC41; [11]) of 0.125 µg/mL (≈ 0.0984 µM), an MIC (S. pyogenes C203; [12]) of 0.25 µg/mL (≈ 0.197 µM) and an MIC (E. coli SKF 12140; [13]) of over 128 µg/mL. For the same compound, the MIC [2, 14] was over 128 µg/mL, the MIC (P. aeruginosa ISM; [15]) was over 128 µg/mL and the ED50 (S. pyogenes L 49; [16]) was 1.25 mg/kg. For the same compound, the pK₁ (Acid-base titration) was 4.75 and the pK₂ (Acid-base titration) was 6.5.

“N¹⁵-(2,3-Dihydroxy)propyl teicoplanin [Compound 1]” showed an MIC (S. aureus Tour; S. aureus Tour 10^4) of 0.5 microgram/ml, an MIC (S. aureus Tour; S. aureus Tour 10^6) of 2 microgram/ml and an MIC (S. aureus Tour; [3]) of 2 microgram/ml. The MIC [1] was 0.25 microgram/ml, the MIC (S. faecalis ATCC 7080) was 0.12 microgram/ml and the MIC (S. haemolyticus L 602; [4]) was 32 microgram/ml. It also gave an MIC (S. pneumoniae UC41) of 0.25 microgram/ml, an MIC (S. pyogenes C203) of 0.06 microgram/ml and an MIC (E. coli SKF 12140) of over 128 microgram/ml. The MIC [2] was over 128 microgram/ml, the MIC (P. aeruginosa ISM) was over 128 microgram/ml and the pK₁ (Acid-base titration) was 4.7. The pK₂ (Acid-base titration) was 6.
